Structures can show the parent of a compound that is named as a salt. Where two headings read alike, the source gives them in different places.
Key:
[1] = test system: cerebellar granule cells (CGC); assay: in vitro; format: cell-based, Wistar rat; settings: for Percent Apoptotic Nuclei (Ara C + R-2HMP + compound): antagonism, Ara C 100 μM + R-2HMP 100 nM + S-enantiomer 10 μM, #P < 0.05 compared to Ara C + R-2HMP; for Percent Apoptotic Nuclei (Ara C + R-2HMP + compound) / Percent Apoptotic Nuclei (Control + compound) / Percent Apoptotic Nuclei (Ara C + compound): mean ± sem of 4 cultures; for Percent Apoptotic Nuclei (Control + compound): no Ara C, control 4.2 ± 0.3; for Percent Apoptotic Nuclei (Control + compound) / Percent Apoptotic Nuclei (Ara C + compound): R-2HMP 100 nM, S-2HMP 10 μM, S-2HPA 10 μM; for Percent Apoptotic Nuclei (Ara C + compound): with Ara C 100 μM, *P < 0.05 compared to Ara C alone; for blocking of Ara C induced apoptosis: 10^-7 M (FIG. 1c)
Excerpt: Cultures of cerebellar granule cells (CGC) can be induced into apoptosis by the addition of a high concentration of cytosine arabinoside (Ara C) (Dessi et al., 1995) and it has been shown that this is a p53 dependent apoptosis (Enokido et al, 1996). We have measured the antiapoptotic effect of N-(2-heptyl)propargylamine (2HPA) using this system and compared the results to those obtained with previously known aliphatic methyl propargylamines and deprenyl.
Cultures of CGC were obtained from 6-8 day old Wistar rat pups. Cultures were grown on glass in 35 mm petri dishes for 3 days and then used for experiments. 20 μl aliquots of drug solutions (Ara C, anti-apoptotic drugs, drug vehicles) were added to the medium of the cultures. 24 Hours later the cultures were fixed with FAM, and stained with bis-benzamide. Normal and apoptotic nuclei were counted to a total of 90-120 cells per culture. […] Concentrations in excess of 150 μM caused detachment of the cultures.
Compounds were added at the following concentrations: Ara C, 100 μM,

[2] = test system: pyramidal neurons in the hippocampus (CA1 neurons); assay: Hypoxia/ischaemia model, CA1 neuron survival; format: in vivo, rat; settings: for mean survival of CA1 neurons, percentage of vehicle treated controls (Table 2): **P < 0.01; for response vs control in vivo at 0.1 µmol/kg: Rattus norvegicus, Neuron, sc, read-out: Percentage survival of CA1 neurones, of vehicle treated controls (Table 4)
Excerpt: This model produces selective, unilateral lesioning of the pyramidal neurons in the hippocampus which involves neuronal apoptosis.
Values are the mean survival of CA1 neurons expressed as a percentage of
vehicle treated controls (vehicle = 100%) ± sem (n = 6 - 10).

[3] = biological target: T1, rat liver mitochondrial monoamine oxidase B (Rattus norvegicus, UniProt P19643); assay: biochemical; format: biochemical; settings: for Comparison to most effective MAO-B inhibitor in group / MAO-B inhibitory activity: in vitro; for Comparison to most effective MAO-B inhibitor in group: relative to most effective inhibitor in group; for IC50: substrate PE (β-phenylethylamine) 1.9 × 10^-5 M, average of at least 2 independent triplicate experiments
T1 sequence (P19643 1-520): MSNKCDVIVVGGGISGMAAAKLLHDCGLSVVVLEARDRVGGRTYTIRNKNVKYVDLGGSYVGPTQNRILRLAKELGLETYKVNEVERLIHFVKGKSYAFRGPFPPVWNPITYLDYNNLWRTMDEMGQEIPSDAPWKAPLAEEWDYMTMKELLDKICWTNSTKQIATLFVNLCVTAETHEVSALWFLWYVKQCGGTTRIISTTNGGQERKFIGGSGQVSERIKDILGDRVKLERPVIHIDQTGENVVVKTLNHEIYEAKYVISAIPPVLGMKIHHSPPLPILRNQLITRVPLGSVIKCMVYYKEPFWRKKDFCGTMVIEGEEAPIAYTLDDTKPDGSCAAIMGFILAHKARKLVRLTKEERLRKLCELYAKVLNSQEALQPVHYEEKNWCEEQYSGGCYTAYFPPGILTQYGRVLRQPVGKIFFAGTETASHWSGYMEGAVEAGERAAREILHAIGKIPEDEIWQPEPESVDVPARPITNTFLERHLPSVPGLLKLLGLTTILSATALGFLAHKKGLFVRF
Protocol: Enzyme activity was assessed using a radiometric method as previously described (Yu et al, 1992).

[4] = 0.1 μmol/kg, s.c., vehicle = 100%, ± sem (n = 6-10)
[5] = 0.1 μmol/kg, s.c., vehicle = 100%, ± sem (n = 6-10), *P < 0.05, **P < 0.01

Which “Percent Apoptotic Nuclei (Ara C + R-2HMP + compound)” value [1] does the source give for `C#CCN[C@@H](C)CCCCC` [Example S-2HPA, (S)-N-(2-heptyl)-propargylamine] here?
Its value is 13.8 ± 1.2%.

What about the “antagonism of the anti-apoptotic action of the R-enantiomers” value ([1]; in words) of the same molecule?
Its value is “antagonists of the anti-apoptotic action of the R-enantiomers”.

What about the anti-apoptotic effect ([1]; in words) of the same molecule?
Its anti-apoptotic effect is “does not have an anti-apoptotic effect”.

And the “Percent Apoptotic Nuclei (Control + compound)” value [1]?
The value was 4.7 ± 0.7%.

And the “Percent Apoptotic Nuclei (Ara C + compound)” value [1]?
Its value is 14.2 ± 0.9%.

And the “mean survival of CA1 neurons, percentage of vehicle treated controls (Table 2)” value [2, 4]?
Its value is 131 ± 19%.

What about the response vs control in vivo at 0.1 µmol/kg [2, 5] of the same molecule?
Its response vs control in vivo at 0.1 µmol/kg is 131 ± 19%.

And the “Comparison to most effective MAO-B inhibitor in group” value [3]?
The value was 0.1%.

And the IC50 [3]?
Its IC50 is 30 µM.

How did the “MAO-B inhibitory activity” value [3] turn out when `C#CCNC(C)CCCC` (centres unmarked) [Example 2HxPA, N-(2-hexyl)-propargylamines] was run?
The value was “substantially reduced in comparison to those of the N-methyl compounds”.

For `C#CCN(C)[C@@H](C)CCCC` [Example S-2HxMP, N-(2-hexyl)-N-methyl-propargylamine], which “Comparison to most effective MAO-B inhibitor in group” value [3] is on record?
The value was 4.3%.

And the IC50 [3]?
Its IC50 is 0.7 µM.

Which results are given for `C#CCNC(C)C.Cl` [Example 2PrPA, N-2-Propylpropargylamine hydrochloride]?
response vs control in vivo at 0.1 µmol/kg [2, 5]: 175 ± 20%; activity in the hypoxia/ischaemia model ([2]; s.c.): slightly lower than those of the optimum branched chain compounds

Which results are given for `C#CCN(C)C(C)C` [Example 2PrMP, N-(2-propyl)-N-methylpropargylamine]?
response vs control in vivo at 0.1 µmol/kg [2, 5]: 255 ± 43%; activity in the hypoxia/ischaemia model ([2]; s.c.): slightly lower than those of the optimum branched chain compounds

`CCCCC[C@@H](C)N` [Example R-2HA, (R)-(2-heptyl)amine] was tested. Which “mean survival of CA1 neurons, percentage of vehicle treated controls (Table 2)” value [2, 4] did it give?
The value was 90 ± 30%.

What about the “activity in the hypoxia/ischaemia model” value ([2]; s.c.) of the same molecule?
The value was “neither increase nor decrease the CA1 neuronal death”.

With `CCCCC[C@@H](C)NC` [Example R-2HMA, (R)-N-(2-heptyl)-methylamine] as the molecule, how does the “mean survival of CA1 neurons, percentage of vehicle treated controls (Table 2)” value [2, 4] read?
The value was 85 ± 26%.

What about the “activity in the hypoxia/ischaemia model” value ([2]; s.c.) of the same molecule?
The value was “neither increase nor decrease the CA1 neuronal death”.

With `C#CCN[C@H](C)CC.Cl` [Example R-2BuPA, (R)-N-2-Butylpropargylamine hydrochloride] as the molecule, how does the response vs control in vivo at 0.1 µmol/kg [2, 5] read?
The response vs control in vivo at 0.1 µmol/kg was 263 ± 37%.

What about the “Comparison to most effective MAO-B inhibitor in group” value [3] of the same molecule?
Its value is 1.4%.

And the IC50 [3]?
Its IC50 is 70 µM.

How did the response vs control in vivo at 0.1 µmol/kg [2, 5] turn out when `C#CCN(C)CCC` [Example 1PrMP, N-(1-propyl)-N-methylpropargylamine] was run?
Its response vs control in vivo at 0.1 µmol/kg is 127 ± 31%.

What about the “activity in the hypoxia/ischaemia model” value ([2]; s.c.) of the same molecule?
Its value is “inactive”.

Which response vs control in vivo at 0.1 µmol/kg [2, 5] does the source give for `C#CCN(C)CCCCCC` [Example 1HxMP, N-(1-hexyl)-N-methylpropargylamine] here?
Its response vs control in vivo at 0.1 µmol/kg is 215 ± 24%.

How did the response vs control in vivo at 0.1 µmol/kg [2] turn out when `C#CCN(C)[C@@H](C)CC` [Example S-2BuMP, (S)-N-(2-butyl)-N-methylpropargylamine] was run?
Its response vs control in vivo at 0.1 µmol/kg is 139 ± 38%.

With `C#CCNC(C)CC` (centres unmarked) [Example 2BuPA, N-(2-butyl)-propargylamine] as the molecule, how does the “MAO-B inhibitory activity” value [3] read?
Its value is “substantially reduced in comparison to those of the N-methyl compounds”.

For `C#CCNCCCCCC` [Example 1HxPA, N-1-Hexylpropargylamine hydrochloride], which response vs control in vivo at 0.1 µmol/kg [2, 5] is on record?
The response vs control in vivo at 0.1 µmol/kg was 179 ± 23%.

For `C#CCNC` [MPA, N-methylpropargylamine], which response vs control in vivo at 0.1 µmol/kg [2] is on record?
The response vs control in vivo at 0.1 µmol/kg was 78 ± 31%.

How did the response vs control in vivo at 0.1 µmol/kg [2] turn out when `C#CCN(C)[C@H](C)CC` [Example R-2BuMP, (R)-N-(2-butyl)-N-methylpropargylamine] was run?
The response vs control in vivo at 0.1 µmol/kg was 297 ± 52%.

`C#CCN(C)[C@@H](C)Cc1ccccc1` [S-deprenyl] was tested. Which “blocking of Ara C induced apoptosis” value [1] did it give?
Its value is “did not”.

For `C#CCN(C)[C@H](C)CCCC` [Example R-2HxMP, N-(2-hexyl)-N-methyl-propargylamine], which “Comparison to most effective MAO-B inhibitor in group” value [3] is on record?
Its value is 100%.

What about the IC50 [3] of the same molecule?
The IC50 was 0.03 µM.

For `C#CCN(C)C` [DMP, N,N-dimethylpropargylamine], which response vs control in vivo at 0.1 µmol/kg [2] is on record?
Its response vs control in vivo at 0.1 µmol/kg is 117 ± 28%.

Which “MAO-B inhibitory activity” value [3] does the source give for `C#CCNC(C)CCCCC` (centres unmarked) [Example 2HPA, N-(2-heptyl)-propargylamine] here?
The value was “substantially reduced in comparison to those of the N-methyl compounds”.

Which “Comparison to most effective MAO-B inhibitor in group” value [3] does the source give for `C#CCN[C@H](C)CCCC.Cl` [Example R-2HxPA, (R)-N-2-Hexylpropargylamine hydrochloride] here?
Its value is 0.8%.

And the IC50 [3]?
The IC50 was 4 µM.

Which response vs control in vivo at 0.1 µmol/kg [2, 5] does the source give for `C#CCNCC` [EPA, N-ethylpropargylamine] here?
The response vs control in vivo at 0.1 µmol/kg was 164 ± 18%.

With `C#CCN[C@@H](C)CC` [Example S-2BuPA, (S)-N-(2-butyl)-propargylamine] as the molecule, how does the “Comparison to most effective MAO-B inhibitor in group” value [3] read?
The value was 0.2%.

And the IC50 [3]?
Its IC50 is 500 µM.

With `C#CCNCCC.Cl` [Example 1PrPA, N-1-Propylpropargylamine hydrochloride] as the molecule, how does the response vs control in vivo at 0.1 µmol/kg [2, 5] read?
Its response vs control in vivo at 0.1 µmol/kg is 174 ± 29%.

What about the “activity in the hypoxia/ischaemia model” value ([2]; s.c.) of the same molecule?
The value was “active”.

Which results are given for `C#CCN(C)[C@@H](C)CCCCC` [Example S-2HMP, (S)-N-(2-heptyl)-N-methyl-propargylamine]?
blocking of Ara C induced apoptosis [1]: did not; Percent Apoptotic Nuclei (Ara C + R-2HMP + compound) [1]: 15.1 ± 0.9%; antagonism of the anti-apoptotic action of the R-enantiomers ([1]; in words): antagonists of the anti-apoptotic action of the R-enantiomers; Percent Apoptotic Nuclei (Control + compound) [1]: 5.0 ± 0.6%; Percent Apoptotic Nuclei (Ara C + compound) [1]: 13.7 ± 1.1%; mean survival of CA1 neurons, percentage of vehicle treated controls (Table 2) [2, 4]: 112 ± 23%; response vs control in vivo at 0.1 µmol/kg [2, 5]: 112 ± 23%; Comparison to most effective MAO-B inhibitor in group [3]: 0.8%; IC50 [3]: 4 µM

With `C#CCN(C)CC` [EMP, N-ethyl-N-methylpropargylamine] as the molecule, how does the response vs control in vivo at 0.1 µmol/kg [2, 5] read?
Its response vs control in vivo at 0.1 µmol/kg is 82 ± 19%.

Source: patent US6251950A, “Aliphatic propargylamines as cellular rescue agents” (University of Saskatchewan, priority 1998, dated 2001)
